The values that follow are results of earlier work, collected in US20180291400A1, “METHODS AND COMPOSITIONS TO INCREASE HUMAN SOMATIC CELL NUCLEAR TRANSFER (SCNT) EFFICIENCY BY REMOVING HISTONE H3-LYSINE TRIMETHYLATION, AND DERIVATION OF HUMAN NT-ESC” (CHILDREN'S MEDICAL CENTER CORPORATION, priority 2015, published 2018).

The target of one data set is SUV39h2 (Homo sapiens, UniProt Q9H5I1).
SUV39h2, sequence (Q9H5I1 whole entry): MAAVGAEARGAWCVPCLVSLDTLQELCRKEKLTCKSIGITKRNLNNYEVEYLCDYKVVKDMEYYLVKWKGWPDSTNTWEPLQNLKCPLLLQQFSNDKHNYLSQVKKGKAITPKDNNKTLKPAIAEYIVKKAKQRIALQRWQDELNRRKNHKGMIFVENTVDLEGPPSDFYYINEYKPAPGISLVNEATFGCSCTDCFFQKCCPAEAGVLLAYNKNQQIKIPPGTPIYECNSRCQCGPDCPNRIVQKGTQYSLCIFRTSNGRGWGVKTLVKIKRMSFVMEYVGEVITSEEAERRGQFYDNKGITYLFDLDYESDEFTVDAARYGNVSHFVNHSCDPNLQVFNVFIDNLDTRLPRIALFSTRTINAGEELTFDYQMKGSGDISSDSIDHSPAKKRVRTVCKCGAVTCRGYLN

Regarding `Nc1nccc2c1ncn2[C@@H]1C=C(CO)[C@@H](O)[C@H]1O` [DZNep, 3-Deazaneplanocin A], in the data set on SETDB1 H3K9me3 HMTase, the “levels of H3K27me3 and H3K9me3” value was “reduced levels of both H3K27me3 and H3K9me3”. On to `COc1cc2c(NC3CCN(C(C)C)CC3)nc(C3CCCCC3)nc2cc1OCCCN1CCCC1` [UNC0638, 2-Cyclohexyl-N-(1-isopropylpiperidin-4-yl)-6-methoxy-7-(3-(pyrrolidin-1-yl)propoxy)quinazolin-4-amine], for which, at SUV39h2, the IC50 was over 10 µM.

One may read the IC50 as the point on the concentration scale where inhibition reaches its midpoint.
